Patent US8273769B2, “Phenoxy acetic acid derivatives” (Merck Serono SA, priority 2009, dated 2012)

Assays:
[1] = In vivo pharmacokinetic evaluation in mouse; design: species or system C57BL/6 female mice; settings: mice; for clearance / AUC / bioavailability: female, C57BL/6, mouse, plasma; for clearance: iv, i.v. 1 mg/Kg; for AUC po (5 mg/Kg) / AUC: oral gavage 5 mg/Kg; for bioavailability: po, 5 mg/kg
Protocol: In order to study the pharmacokinetic (PK) profile of test compounds in vivo, Sprague Dawley male rats or C57BL/6 female mice were dosed intravenously or after oral gavage. For both species, test compounds were dosed in solution at 1 mg/kg for i.v. route (10% ethanol, 10% N,N-dimethylacetamide, 30% propylene glycol, 50% water, v/v) and in suspension at 5 mg/kg (0.5% carboxymethylcellulose suspension, containing 0.25% Tween 20 in water) for oral gavage. PK profile in rat was obtained from 3 animals per dosing route and mouse PK profile was determined from 3 animals for each time points. The volume of administration was 2 mL/kg for i.v. dosing in both species and either 5 mL/kg (rat) or 10 mL/kg (mouse) for oral gavage. Blood samples (100 μL/time point) were collected at 0.083 (5 min), 0.25, 0.5, 1, 4, 7 and 24 hours post-dose for i.v. dosing, and at 0.5, 1, 4, 7 and 24 h for oral dosing, into heparin-Li+ containing tubes. For rats, all blood samples were collected trough a catheter in the carotid artery (placed in the artery the day before the experiment), under light isoflurane anesthesia, and stored on ice until centrifugation and plasma isolation. For mouse, blood samples were collected from intracardiac puncture at sacrifice at each time point and processed as described above for the rat. Plasma samples were stored frozen until analysis (−20° C. to −70° C.). For bioanalysis, samples were processed by protein precipitation (acetonitrile, formic acid 0.1%, addition of 3 volumes) after addition of one internal standard and analysed using a sensitive and selective LC/MS/MS method. An aliquot of the resulting supernatant was subject to LC/MS/MS analysis using a reverse phase column (Waters Xterra, C8, (3.5 μm particle size, 2.1×50 mm) and a short gradient (1 min) from (Solvent A) 85% water, 15% acetonitrile and 0.1% formic acid to (Solvent B) 90% acetonitrile, 10% water and 0.1% formic acid followed by isocratic conditions of Solvent B for 3.5 min at 0.4 mL/min. Column effluent was monitored using a Sciex API 4000 triple quadrupole mass spectrometer with a Turbo V electrospray ion source. Unknown concentrations of test compounds were determined using a calibration curve ranging from 1 to 3000 ng/mL.

CRTH2 = molecular target: T1, CRTH2 (Homo sapiens, UniProt Q9Y5Y4); assay: Cellular Dielectric Spectroscopy (CHO-CRTH2 cells); type: cell-based; design: expressed in transfected cells; host or cells: CHO-CRTH2 cells; settings: antagonist mode, fixed concentration of PGD2 (EC80)
T1 sequence (Q9Y5Y4 1-395): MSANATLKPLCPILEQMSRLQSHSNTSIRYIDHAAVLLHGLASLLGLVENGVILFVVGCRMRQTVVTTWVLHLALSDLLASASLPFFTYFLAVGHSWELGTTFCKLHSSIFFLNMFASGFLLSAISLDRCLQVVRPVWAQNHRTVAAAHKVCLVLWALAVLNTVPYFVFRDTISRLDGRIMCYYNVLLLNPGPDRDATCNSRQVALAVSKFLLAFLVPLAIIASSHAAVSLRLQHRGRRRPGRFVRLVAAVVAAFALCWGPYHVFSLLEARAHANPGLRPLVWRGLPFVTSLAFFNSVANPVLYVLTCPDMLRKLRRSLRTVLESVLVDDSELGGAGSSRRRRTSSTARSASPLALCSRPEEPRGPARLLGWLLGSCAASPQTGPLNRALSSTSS
Protocol: Cellular Dielectric Spectroscopy (CDS) is a label-free technology based on the measurement of complex impedance changes (delta Z or dZ). Impedance (Z) is related to the ratio of voltage to current as described by Ohm's law (Z=V/I). In order to measure the changes in impedance that occur in response to receptor stimulation, mammalian cells are seeded onto a custom 96-well microliter plate that contains electrodes at the bottom of each well. Key contributors to the impedance measurements are changes in cell-substrate adherence, changes in cell shape and volume, and changes in cell-cell interactions. These factors individually or collectively affect the flow of current, influencing the magnitude and characteristics of the signal measured. G-protein coupled receptors ligand-induced activity can be measured using this technology and specific G protein coupling can be identified. Activities of reference agonist and antagonist molecules of CRTH2 have been measured using this assay and similar results were obtained compared to different functional assays.
CHO-CRTH2 cells are cultured in HAM's F12 (Lonza, Switzerland) supplemented with 10% foetal calf serum (PAA, Australia) and 400 μg/ml Geneticin. 100000 cells/well are seeded in standard 96W Microplates (MDS Analytical Technologies) and incubated at 37° C. in 5% CO2 for 24 hours. Cells are washed twice with 135 μl of cell key buffer (Hank's Balanced Salt Solution 1× (HBSS) (Invitrogen) supplemented with 10 mM HEPES pH 7.4 in presence of 1% DMSO). For EC50 determination. 15 μl of increasing concentration of Compounds of Formula (I) diluted in cell key buffer are added to the cells and agonist activity is then recorded for 25 minutes. […] Results are expressed as the amplitude between the highest and the lowest signal produced (max-min). Basal and maximum activities are measured, respectively in absence or presence of PGD2 (EC80).

Structure (SMILES)	clearance [1] [mL/min/kg]	Oral bioavailability [1] [%]	AUC po (5 mg/Kg) [1] [ng·h/mL]	IC50 (CRTH2) [nM]	AUC [1] [ng·h/mL]	bioavailability [1] [%]
CCCS(=O)(=O)c1cccc(C#Cc2cc(Cl)ccc2OCC(=O)O)c1 [Example 17, (4-chloro-2-{[3-(propylsulfonyl)phenyl]ethynyl}phenoxy)acetic acid]	5	37	5768	22	–	–
CN(C)S(=O)(=O)c1cncc(C#Cc2cc(Cl)ccc2OCC(=O)O)c1 [Example 35, [4-chloro-2-({5-[(dimethylamino)sulfonyl]pyridin-3-yl}ethynyl)phenoxy]acetic acid]	13.3	95	–	23	6210	–
CCCS(=O)(=O)c1ccc(C)c(C#Cc2cc(Cl)ccc2OCC(=O)O)c1 [Example 38, (4-chloro-2-{[2-methyl-5-(propylsulfonyl)phenyl]ethynyl}phenoxy)acetic acid]	16.7	–	3685	32	–	80
CCCS(=O)(=O)c1ccc(F)c(C#Cc2cc(Cl)ccc2OCC(=O)O)c1 [Example 89, (4-chloro-2-{[2-fluoro-5-(propylsulfonyl)phenyl]ethynyl}phenoxy)acetic acid]	6.67	63	–	29	6750	–
CCCS(=O)(=O)c1ccc(Cl)c(C#Cc2cc(Cl)ccc2OCC(=O)O)c1 [Example 101, (4-chloro-2-{[2-chloro-5-(propylsulfonyl)phenyl]ethynyl}phenoxy)acetic acid]	16.7	–	5795	38	–	110
CC(C)S(=O)(=O)c1ccc(F)c(C#Cc2cc(Cl)ccc2OCC(=O)O)c1 [Example 102, (4-chloro-2-{[2-fluoro-5-(isopropylsulfonyl)phenyl]ethynyl}phenoxy)acetic acid]	5.83	–	18691	16	–	130
CC(C)S(=O)(=O)c1ccc(Cl)c(C#Cc2cc(Cl)ccc2OCC(=O)O)c1 [Example 103, (4-chloro-2-{[2-chloro-5-(isopropylsulfonyl)phenyl]ethynyl}phenoxy)acetic acid]	11.7	64	4889	44	–	–
CN(C)S(=O)(=O)c1ccc(F)c(C#Cc2cc(Cl)ccc2OCC(=O)O)c1 [Example 107, [4-chloro-2-({5-[(dimethylamino)sulfonyl]-2-fluorophenyl}ethynyl)phenoxy]acetic acid]	10	58	4880	23	–	–
O=C(O)COc1ccc(Cl)cc1C#Cc1ccc2c(c1)S(=O)(=O)c1ccccc1-2 [Example 154, {4-chloro-2-[(5,5-dioxidodibenzo[b,d]thien-3-yl)ethynyl]phenoxy}acetic acid]	1.67	57	30942	–	–	–
